In PubChem BioAssay AID248 (DTP/NCI, 2004):
Where “and” joins values, the source holds several entries; their conditions need not be identical. Identical values can stand only once. Toxic doses and inconclusive results are not listed. Rule as the data show it: active = T/C of 150% or more; inactive = T/C below 125%. Peptide text beside a SMILES is read from it. * marks the point of attachment. ONp = O=[N+]([O-])c1ccc(O*)cc1; Cbz = O=C(OCc1ccccc1)*

Tested on: L1210 leukemia ip in BDF1 mice, survival T/C
Test: NCI In Vivo Anticancer Drug Screen. Data for tumor model L1210 Leukemia (intraperitoneal) in B6D2F1 (BDF1) mice
Details: endpoint: mean survival time, higher = longer survival
In short: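 Each compound was tested against a transplantable tumor grown in mice. The endpoint was survival, with treated animals benchmarked against vehicle controls as a simple ratio.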

[1] = dose: 100.0 mg/kg/injection, schedule: Q01DX009 (ip), vehicle: saline with Tween-80
[2] = dose: 100.0 mg/kg/injection, schedule: Q04DX003 (ip), vehicle: other
[3] = dose: 200.0 mg/kg/injection, schedule: Q01DX009 (ip), vehicle: saline with Tween-80
[4] = dose: 200.0 mg/kg/injection, schedule: Q04DX003 (ip), vehicle: other
[5] = dose: 400.0 mg/kg/injection, schedule: Q01DX009 (ip), vehicle: saline with Tween-80
[6] = dose: 400.0 mg/kg/injection, schedule: Q04DX003 (ip), vehicle: other
[7] = dose: 100.0 mg/kg/injection, schedule: Q04DX003 (ip), vehicle: saline with Tween-80
[8] = dose: 200.0 mg/kg/injection, schedule: Q04DX003 (ip), vehicle: saline with Tween-80
[9] = dose: 400.0 mg/kg/injection, schedule: Q04DX003 (ip), vehicle: saline with Tween-80
[10] = dose: 50.0 mg/kg/injection, schedule: Q01DX009 (ip), vehicle: saline with Tween-80
[11] = dose: 12.5 mg/kg/injection, schedule: Q01DX009 (ip), vehicle: saline
[12] = dose: 25.0 mg/kg/injection, schedule: Q01DX009 (ip), vehicle: saline
[13] = dose: 50.0 mg/kg/injection, schedule: Q01DX009 (ip), vehicle: saline
[14] = dose: 75.0 mg/kg/injection, schedule: Q01DX009 (ip), vehicle: saline
[15] = dose: 100.0 mg/kg/injection, schedule: Q01DX001 (ip), vehicle: carboxymethylcellulose (CMC)
[16] = dose: 200.0 mg/kg/injection, schedule: Q01DX001 (ip), vehicle: carboxymethylcellulose (CMC)
[17] = dose: 400.0 mg/kg/injection, schedule: Q01DX001 (ip), vehicle: carboxymethylcellulose (CMC)
[18] = dose: 50.0 mg/kg/injection, schedule: Q04DX003 (ip), vehicle: saline
[19] = dose: 100.0 mg/kg/injection, schedule: Q04DX003 (ip), vehicle: saline
[20] = dose: 100.0 mg/kg/injection, schedule: Q01DX001 (ip), vehicle: saline
[21] = dose: 200.0 mg/kg/injection, schedule: Q01DX001 (ip), vehicle: saline

Measured: T/C

Cc1ccc(S(=O)(=O)NN=C2CCC(C(C)(C)C)CC2)cc1 (centres undefined)
inactive: [1] 88 % of control | [2] 91 % of control | [3] 88 % of control | [4] 89 % of control | [5] 91 % of control | [6] 96 % of control

C=CCc1cn(C2OC(COC(=O)c3ccccc3)C(OC(=O)c3ccccc3)C2OC(=O)c2ccccc2)c(=S)[nH]c1=O (centres undefined)
inactive: dose: 100.0 mg/kg/injection, schedule: Q01DX005 (ip), vehicle: saline 95 % of control | dose: 200.0 mg/kg/injection, schedule: Q01DX005 (ip), vehicle: saline 98 % of control

CC(=O)N(C)Nc1ccccc1
inactive: [1] 116 % of control | [7] 91 % of control | [3] 97 % of control | [8] 91 % of control | [5] 90 % of control | [9] 106 % of control

CC(C)(C)SC1CC(=O)OC1=O (centres undefined)
inactive: dose: 87.5 mg/kg/injection, schedule: Q04DX003 (ip), vehicle: saline with Tween-80 102 % of control | dose: 175.0 mg/kg/injection, schedule: Q04DX003 (ip), vehicle: saline with Tween-80 106 % of control | dose: 350.0 mg/kg/injection, schedule: Q04DX003 (ip), vehicle: saline with Tween-80 109 % of control

CN=C(c1ccc(NC(=O)c2ccc(C(=O)Nc3ccc(C(=NC)N(C)Cc4ccccc4)cc3)cc2)cc1)N(C)Cc1ccccc1
inactive: dose: 1.88 mg/kg/injection, schedule: Q01DX Z (ip), vehicle: saline 104 % of control | dose: 3.75 mg/kg/injection, schedule: Q01DX Z (ip), vehicle: saline 98 % of control | dose: 7.5 mg/kg/injection, schedule: Q01DX Z (ip), vehicle: saline 97 % of control

CCOC(=O)c1c(NC(C)=O)sc2c1CCCC2
inactive: [10] 108 % of control | [1] 108 % of control | [3] 95 % of control

CCc1c(Nc2ccc(C)cc2)[nH]c(N)nc1=S
inactive: dose: 200.0 mg/kg/injection, schedule: Q01DX Z (ip), vehicle: methylcellulose (MC) 89 % of control

O=C(CNC(=O)OCc1ccccc1)NCC(=O)Oc1ccc([N+](=O)[O-])cc1 (Cbz-Gly-Gly-ONp)
inactive: [1] 108 % of control | [7] 92 % of control | [3] 105 % of control | [8] 94 % of control | [5] 100 % of control | [9] 92 % of control

CCCNC(C)(C)C(SSSC(c1cccs1)C(C)(C)NCCC)c1cccs1 (centres undefined)
inactive: [11] 101 % of control | dose: 12.5 mg/kg/injection, schedule: Q04DX003 (ip), vehicle: Klucel (hydroxypropylcellulose) (HPC) 96 % of control | [12] 95 % of control | dose: 25.0 mg/kg/injection, schedule: Q04DX003 (ip), vehicle: Klucel (hydroxypropylcellulose) (HPC) 106 % of control | [13] 92 % of control | dose: 50.0 mg/kg/injection, schedule: Q04DX003 (ip), vehicle: Klucel (hydroxypropylcellulose) (HPC) 96 % of control | dose: 75.0 mg/kg/injection, schedule: Q01DX009 (ip), vehicle: Klucel (hydroxypropylcellulose) (HPC) 98 % of control | [14] 88 % of control | dose: 115.0 mg/kg/injection, schedule: Q01DX009 (ip), vehicle: Klucel (hydroxypropylcellulose) (HPC) 97 % of control | dose: 170.0 mg/kg/injection, schedule: Q01DX009 (ip), vehicle: Klucel (hydroxypropylcellulose) (HPC) 96 % of control | dose: 170.0 mg/kg/injection, schedule: Q01DX009 (ip), vehicle: saline 89 % of control

CN(C)S(=O)(=O)c1ccc(N=NN2CCOCC2)cc1
inactive: dose: 100.0 mg/kg/injection, schedule: Q04DX002 (ip), vehicle: saline with Tween-80 115 % of control | dose: 200.0 mg/kg/injection, schedule: Q04DX002 (ip), vehicle: saline with Tween-80 97 % of control | dose: 400.0 mg/kg/injection, schedule: Q04DX002 (ip), vehicle: saline with Tween-80 108 % of control

O=S1(=O)CCNNCC1
inactive: dose: 37.5 mg/kg/injection, schedule: Q01DX009 (ip), vehicle: saline 100 % of control | [14] 109 % of control | dose: 150.0 mg/kg/injection, schedule: Q01DX009 (ip), vehicle: saline 105 % of control | dose: 300.0 mg/kg/injection, schedule: Q01DX009 (ip), vehicle: saline 103 % of control

CCCCCCc1cc(N=Nc2ccc(S(=O)(=O)Nc3occ(C)c3C)cc2)c(O)cc1O
inactive: [15] 93 % of control | [16] 93 % of control | [17] 98 % of control

O=C(Nc1c(Oc2ccc(Cl)cc2)ccc(Cl)c1S(=O)(=O)O)Nc1c(Oc2ccc(Cl)c(Cl)c2)ccc(Cl)c1S(=O)(=O)O
inactive: [18] 97 % of control | [19] 90 % of control | dose: 200.0 mg/kg/injection, schedule: Q04DX003 (ip), vehicle: saline 95 % of control

Clc1cc(Cl)c(SSc2cc(Cl)c(Cl)cc2Cl)cc1Cl
inactive: [10] 102 % of control | [1] 98 % of control | [3] 98 % of control

COc1cccc(CNc2cccc(Cl)c2Cl)c1OC
inactive: [1] 103 % of control | [2] 102 % of control | [3] 94 % of control | [4] 96 % of control | [5] 109 % of control | [6] 113 % of control

O=[N+]([O-])/C=C/c1ccc([N+](=O)[O-])cc1Cl
inactive: [11] 101 % of control | [12] 103 % of control | dose: 50.0 mg/kg/injection, schedule: Q01DX001 (ip), vehicle: saline 100 % of control | [13] 108 % of control | dose: 50.0 mg/kg/injection, schedule: Q04DX003 (ip), vehicle: saline with Tween-80 119 % of control | [20] 93 % of control | [21] 102 % of control

S=P(c1cccc2ccccc12)(c1cccc2ccccc12)c1cccc2ccccc12
inactive: [20] 97 % of control | [21] 95 % of control | dose: 400.0 mg/kg/injection, schedule: Q01DX001 (ip), vehicle: saline 95 % of control

CCN(CC)CCOc1ccc(Br)cc1
inactive: dose: 25.0 mg/kg/injection, schedule: Q04DX003 (ip), vehicle: saline 105 % of control | [13] 102 % of control | [18] 100 % of control | dose: 100.0 mg/kg/injection, schedule: Q01DX009 (ip), vehicle: saline 102 % of control | [19] 103 % of control and 111 % of control

CCOC(Cl)CCl (centres undefined)
inactive: dose: 6.25 mg/kg/injection, schedule: Q01DX009 (ip), vehicle: saline with Tween-80 106 % of control | dose: 12.5 mg/kg/injection, schedule: Q01DX001 (ip), vehicle: saline with Tween-80 97 % of control | dose: 12.5 mg/kg/injection, schedule: Q01DX009 (ip), vehicle: saline with Tween-80 100 % of control | dose: 25.0 mg/kg/injection, schedule: Q01DX001 (ip), vehicle: saline with Tween-80 97 % of control | dose: 25.0 mg/kg/injection, schedule: Q01DX009 (ip), vehicle: saline with Tween-80 108 % of control | dose: 50.0 mg/kg/injection, schedule: Q01DX001 (ip), vehicle: saline with Tween-80 93 % of control and 105 % of control | [10] 101 % of control

COc1cc(OC)c2c(=O)c3ccoc3n(C)c2c1OC
inactive: dose: 50.0 mg/kg/injection, schedule: Q01DX001 (ip), vehicle: carboxymethylcellulose (CMC) 98 % of control | [15] 98 % of control | [16] 93 % of control | [17] 93 % of control
